Data set [1] is described as follows: Bleomycin-induced pulmonary fibrosis model in C57BL/6 mice (study INF-01): body weight and survival. The format is in vivo. The procedure:
Thirty-two C57/B6 mice were prospectively randomized into four equally sized groups of eight animals each. An additional four mice served as naïve controls. Pulmonary fibrosis was induced with a single dose of bleomycin (4 U/kg) given intra-nasally on Day 0. Animals' activity and weight were evaluated daily. IPI 926 or vehicle was given every other day from 10 days prior to bleomycin until sacrifice on Day 30, or IPI926 was given beginning on either Day 0 or Day 14 on alternate days until the end of the study. At the end of the study on Day 30, all mice were euthanized and bronchiolar lavage performed to enable an evaluation of the inflammatory infiltrate in the lungs and collect the fluid for possible cytokine evaluation. One lung from each animal was collected for histology, while the other was snap frozen and retained for possible additional analyses.
Bleomycin, a glycopeptides anti-cancer agent originally isolated from Streptomyces verticillus is currently approved for use against squamous cell carcinoma, testicular cancer and Hodgkin's disease. Pulmonary fibrosis is a significant toxicity associated with the use of bleomycin, occurring in a significant percentage of patients undergoing bleomycin therapy. In C57/B6 mice, pulmonary inflammation and subsequent fibrosis is reproducible following bleomycin treatment, and the severity of pulmonary fibrosis is dose-dependent with higher doses being used to evaluate short term inflammatory effects, while lower doses are used to study the longer term impact of pulmonary fibrosis. In this model, mice are given 4 U/kg of bleomycin intranasally and pulmonary fibrosis is evaluated histologically 30 days after the administration of the bleomycin.
Oral administration by gavage QOD for 30 days 40 mg/kg Administered volume varies by weight
Thirty-six (36) female C57B1/6 mice (Charles River Laboratories), aged 5 to 6 weeks, with a mean body weight of 19.7 g at study commencement, were used. Animals were individually numbered using an ear punch and housed in groups of eight animals per cage. Animals were acclimatized for 3 days prior to study commencement. During acclimatization, the animals were observed daily in order to reject animals that presented in poor condition.
Pulmonary fibrosis was induced with a single intra-nasal administration of bleomycin at 4 U/kg in 25 μL of saline. Animals were anesthetized by breathing isoflurane in a closed chamber (2-3% isoflurane 200-300 mls oxygen) to effect. When non-responsive to toe pinch, each animal was held in one hand in an upright position and the bleomycin placed in nares and the droplet watched until inhaled. […]
Animals were weighed and evaluated for respiratory distress daily. […]
All animals were weighed and evaluated for respiratory distress daily throughout this study. […]

In data set [2] the test system is pulmonary fibrosis induced by bleomycin. Description: Example 2B bleomycin-induced pulmonary fibrosis: hydroxyproline. The format is in vivo, C57BL/6 mice. Particulars: treatment begun on the day of bleomycin insult. As for the experimental part: Experimental conditions used in this study are similar to the ones described in Example 2A. […] Mice were treated with bleomycin (BLM) on day 0 and controls received saline (SAL).

For data set [3], the system named is experimental liver metastasis. Description: Mouse model of experimental liver metastasis. Particulars: prophylactic administration. The format is in vivo.
The mark [4] stands for this setting: Group 3: Qod, Day 0 to Day 30, individual animals.

With `CC1=C2C[C@H]3[C@@H](CC[C@@H]4C[C@H](NS(C)(=O)=O)CC[C@@]43C)[C@@H]2CC[C@@]2(C1)O[C@@H]1C[C@H](C)CN[C@H]1[C@H]2C` [IPI-926], in data set [1] (setting [4]), the “Daily Animal Weights, Day 14” value was 21.09 and the “Daily Animal Weights, Day 27” value came out at 21.09. The “animals that died or were euthanized” value in data set [1] (group treated from Day −10 to Day 30) is on record as “sac'd”. In data set [1] (mouse, in vivo), the “weight gain relative to vehicle controls” value is recorded as “reductions in weight gain relative to vehicle controls”. For the same compound, the “fibrosis as ug of hydroxproline per g of animal body weight” value in data set [2] is “reduces the fibrosis caused by bleomycin”. Further, the “metastatic spread and survival” value in data set [3] was “dramatic effects on metastatic spread and survival”.

For the origin of these results see US20110183948A1, “TREATMENT OF FIBROTIC CONDITIONS USING HEDGEHOG INHIBITORS” (INFINITY PHARMACEUTICALS, INC., priority 2010, published 2011).
